Source: ChEMBL document CHEMBL1127887, “Synthesis and in vitro cardiovascular activity of 4-aryl-2,3,3a,4-tetrahydro-1h-pyrrolo[2,1-c][1,4]benzothiazin-1-ones and 7-acetoxy-6-phenyl-7a,8,9,10-tetrahydropyrrolo [2,1,-d][1,5]benzothiazepin-10-one” (Bioorg Med Chem Lett, 1994)

What was measured:
[1] = biological target: T1, Voltage-gated L-type calcium channel (Rattus norvegicus, UniProt P22002+Q02485+P27732); experiment: Inhibitory constant against calcium channel receptors (CCRs); type: protein assay
[2] = species: Cavia porcellus; experiment: Negative inotropic activity on isolated guinea pig left atrium at 10E-4 mol/L concentration was determined; type: functional, Cardiac atrium
[3] = species: Cavia porcellus; experiment: Negative inotropic potency on isolated guinea pig left atrium; type: functional, Cardiac atrium
[4] = species: Cavia porcellus; experiment: Calcium antagonist activity on K+ depolarized guinea pig aortic strips at 10E-4 mol/L concentration was determined; type: functional; conditions: Aorta
[5] = biological target: T1, Voltage-gated L-type calcium channel; experiment: Displacement of [3H]nitrendipine from calcium channel receptors (CCRs); type: protein assay
[6] = species: Cavia porcellus; experiment: Negative chronotropic activity on isolated guinea pig right atrium at 5x10E-5 mol/L concentration was determined; type: functional, Cardiac atrium
[7] = species: Cavia porcellus; experiment: Calcium antagonist potency on K+ depolarized guinea pig aortic strips; type: functional; conditions: Aorta
[8] = biological target: T1, Voltage-gated L-type calcium channel; experiment: Inhibitory constant against calcium channel receptors (CCRs) from rat cortex homogenate
[9] = biological target: T1, Voltage-gated L-type calcium channel; experiment: Displacement of [3H]nitrendipine from calcium channel receptors (CCRs) from rat cortex homogenate

## COc1ccc(C2Sc3ccccc3N3C(=O)CCC23)cc1 (stereo unspecified)
[1]
  Ki: 675 nM
[2]
  Decrease: 60%
[3]
  ED50: 1.2 uM l-1
[4]
  inhibition at 100 µM: 32%
[5]
  IC50: 1800 nM
[6]
  Decrease: 39%
[7]
  IC50: 16600 nM

## O=C1CCC2C(c3ccccc3)Sc3ccccc3N12 (stereo unspecified)
[8]
  Ki: 0.29 nM
[2]
  Decrease: 66%
[3]
  ED50: 0.23 uM l-1
[4]
  inhibition at 100 µM: 37%
[6]
  Decrease: 20%
[9]
  IC50: 0.78 nM
[7]
  IC50: 20000 nM

## CC(=O)OC1=C(c2ccccc2)Sc2ccccc2N2C(=O)CCC12 (stereo unspecified)
[1]
  Ki: 581 nM
[2]
  Decrease: 96%
[3]
  ED50: 1.1 uM l-1
[4]
  inhibition at 100 µM: 26%
[5]
  IC50: 1550 nM
[6]
  Decrease: 27%
[7]
  IC50: 32400 nM

## COc1ccc([C@@H]2Sc3ccccc3N(CCN(C)C)C(=O)[C@@H]2OC(C)=O)cc1 [DILTIAZEM]
[2]
  Decrease: 78%
[3]
  ED50: 0.79 uM l-1
[4]
  inhibition at 100 µM: 88%
[6]
  Decrease: 94%
[7]
  IC50: 2600 nM
